PubChem BioAssay AID602275 (The Scripps Research Institute Molecular Screening Center, 2012)
“And” between values parts separate entries of the source, which are not always exact repeats. Equal entries are not always repeated. The source made the active and inactive calls. How the calls were made is not given here.

Columns and labels:
[1] = target: NS3h 2a[JFH1]; test: HCV NS3 helicase inhibition across viral strains, late-stage follow-up, selectivity assay for HCV NS3 helicase inhibitor project, biochemical, real-time fluorescence, strains con1 and JFH1, set 3 (AID 602275); conditions: Recombinant NS3h, real-time fluorescence helicase unwinding
[2] = target: NS3h 1b[con1]; test: as above; conditions: Recombinant NS3h, real-time fluorescence helicase unwinding

| Structure (SMILES) | IC50 [1] | IC50 [2] | outcome [1] | outcome [2] |
| --- | --- | --- | --- | --- |
| Cc1ccc2nc(-c3ccc(NC(=O)c4ccc(NC(=O)c5ccc(N)cc5)cc4)cc3)sc2c1S(=O)(=O)O | 25.5 µM | 29.4 µM | – | – |
| Cc1ccc2nc(-c3ccc4nc(-c5ccc(NC(=O)c6cccc(Cl)c6)cc5)sc4c3)sc2c1S(=O)(=O)O | 3.9 µM | 2.6 µM | – | – |
| Cc1ccc2nc(-c3ccc4nc(-c5ccc(NC(=O)Nc6ccc(Cl)cc6)cc5)sc4c3)sc2c1S(=O)(=O)O | 4.4 µM | 3.6 µM | – | – |
| Cc1ccc2nc(-c3ccc(NC(=O)c4ccc(N)cc4)cc3)sc2c1S(=O)(=O)O | inactive | inactive | – | – |
| Cc1ccc2nc(-c3ccc(NC(=O)c4ccc(NC(=O)Nc5ccccc5)cc4)cc3)sc2c1S(=O)(=O)O | 32.1 µM | 43.8 µM | – | – |
| Cc1ccc2nc(-c3ccc4nc(-c5ccc(NC(=O)c6cccc7ccccc67)cc5)sc4c3)sc2c1S(=O)(=O)O | 3.9 µM | 4.5 µM | – | – |
| Cc1ccc2nc(-c3ccc4nc(-c5ccc(NC(=O)c6cccc(C(F)(F)F)c6)cc5)sc4c3)sc2c1S(=O)(=O)O | 15.9 µM | 19.7 µM | – | – |
| COC(=O)c1ccc(C(=O)Nc2ccc(-c3nc4ccc(-c5nc6ccc(C)c(S(=O)(=O)O)c6s5)cc4s3)cc2)cc1 | 2.4 µM | 9.7 µM | – | – |
| NS(=O)(=O)c1ccc2nc(NC(=O)c3ccc4ncsc4c3)sc2c1 | 6 µM and 15.7 µM | 37.9 µM and 40.5 µM | – | – |
| CC(=O)Nc1ccc(-c2nc3ccc(-c4nc5ccc(C)c(S(=O)(=O)O)c5s4)cc3s2)cc1 | – | – | inactive | inactive |
| COc1ccc2sc(NC(=O)c3ccc4ncsc4c3)nc2c1 | – | – | inactive | inactive |
| Cc1ccc2nc(-c3ccc4nc(-c5ccc(NC(=O)c6ccc(C(C)(C)C)cc6)cc5)sc4c3)sc2c1S(=O)(=O)O | 5 µM | 8.2 µM | – | – |
| Cc1ccc2c(sc(-c3ccc4c(c3)sc(-c3ccc5c(c3)sc(-c3ccc(N(C)C)cc3)[n+]5C)[n+]4C)[n+]2C)c1S(=O)(=O)O (tested in a mixture with another compound) | 15.6 µM | 23.8 µM | – | – |
| Cc1ccc2nc(-c3ccc4nc(-c5ccc(NC(=O)c6cccc(C(F)(F)F)c6F)cc5)sc4c3)sc2c1S(=O)(=O)O | 8.1 µM | 9.2 µM | – | – |
| Cc1cc2sc(-c3ccc(N)cc3)nc2cc1S(=O)(=O)O | inactive | – | – | inactive |
| Cc1ccc2nc(-c3ccc4nc(-c5ccc(NC(=O)c6ccncc6)cc5)sc4c3)sc2c1S(=O)(=O)O | inactive | – | – | – |
| Cc1ccc2nc(-c3ccc(NC(=O)c4ccc(NC(=O)c5ccc(C(F)(F)F)cc5)cc4)cc3)sc2c1S(=O)(=O)O | 14.7 µM | 10.4 µM | – | – |
| Cc1ccc2nc(-c3ccc(NC(=O)c4ccc(NC(=S)Nc5ccccc5)cc4)cc3)sc2c1S(=O)(=O)O | 28.7 µM | 28.8 µM | – | – |
| O=C(Nc1ccc(-c2nc3ccccc3[nH]2)cc1)c1ccc2ncsc2c1 | 24.3 µM | 25.2 µM | – | – |
| Cc1ccc2nc(-c3ccc4nc(-c5ccc(NC(=S)Nc6ccccc6)cc5)sc4c3)sc2c1S(=O)(=O)O | 9.6 µM | 9.3 µM | – | – |
| Cc1ccc2nc(-c3ccc(NC(=O)c4ccc(NS(=O)(=O)c5ccccc5)cc4)cc3)sc2c1S(=O)(=O)O | – | – | inactive | inactive |
| Cc1ccc2nc(-c3ccc4nc(-c5ccc(NC(=O)c6cc(F)ccc6C(F)(F)F)cc5)sc4c3)sc2c1S(=O)(=O)O | 16.6 µM | 19 µM | – | – |

| Structure (SMILES) | IC50 [1] | IC50 [2] | outcome [1] | outcome [2] |
| --- | --- | --- | --- | --- |
| Cc1ccc2nc(-c3ccc4nc(-c5ccc(NC(=O)c6c(F)cccc6C(F)(F)F)cc5)sc4c3)sc2c1S(=O)(=O)O | inactive | 16.8 µM | – | – |
| Cc1cc(C(O)(c2ccc(Nc3ccccc3)cc2)c2ccc(Nc3ccc(S(=O)(=O)O)cc3)cc2)ccc1N (configuration not stated) | 16.8 µM | 28.6 µM | – | – |
| Cc1ccc2nc(-c3ccc(NC(=O)c4ccc(NC(=O)c5ccc(NC(=O)OCC6c7ccccc7-c7ccccc76)cc5)cc4)cc3)sc2c1S(=O)(=O)O | 1.9 µM | 2.5 µM | – | – |
| COc1ccc(NC(=O)Nc2ccc(-c3nc4ccc(-c5nc6ccc(C)c(S(=O)(=O)O)c6s5)cc4s3)cc2)cc1 | 6.4 µM | 4.8 µM | – | – |
| CCOc1ccc2c(NNC(=O)c3cnccn3)c3c(nc2c1)CCCC3 | inactive | – | – | inactive |
| Cc1ccc2nc(-c3ccc4nc(-c5ccc(NC(=O)Nc6ccccc6)cc5)sc4c3)sc2c1S(=O)(=O)O | 6 µM | 4.1 µM | – | – |
| Cc1ccc2nc(-c3ccc4nc(-c5ccc(NC(=O)c6ccc(Cl)cc6)cc5)sc4c3)sc2c1S(=O)(=O)O | 2.3 µM | 3.4 µM | – | – |
| Cc1ccc2nc(-c3ccc4nc(-c5ccc6nc(-c7ccc(N)cc7)sc6c5)sc4c3)sc2c1S(=O)(=O)O (tested in a mixture with another compound) | 5.3 µM | 12.8 µM | – | – |
| Cc1ccc2nc(-c3ccc4nc(-c5ccc(NC(=O)c6ccc(Cl)c(Cl)c6)cc5)sc4c3)sc2c1S(=O)(=O)O | 4.5 µM | 3.7 µM | – | – |
| CN1CCN(Cc2cc(CN3CCN(C)CC3)c(O)c(=O)c(CN3CCN(C)CC3)c2)CC1 | 18.9 µM | 24 µM | – | – |
| COc1ccc(C(=O)Nc2ccc(-c3nc4ccc(-c5nc6ccc(C)c(S(=O)(=O)O)c6s5)cc4s3)cc2)cc1 | 5.4 µM | 10 µM | – | – |
| Cc1ccc2nc(-c3ccc(NC(=S)Nc4ccccc4Br)cc3)sc2c1 | inactive | – | – | inactive |
| Cc1ccc2nc(-c3ccc(NC(=O)c4ccc(NC(=O)OCC5c6ccccc6-c6ccccc65)cc4)cc3)sc2c1S(=O)(=O)O | 11.5 µM | 11.8 µM | – | – |
| Cc1ccc2nc(-c3ccc4nc(-c5ccc(NC(=O)c6ccc7ncoc7c6)cc5)sc4c3)sc2c1S(=O)(=O)O | 6.4 µM | 3.6 µM | – | – |
| Cc1ccc2nc(-c3ccc4nc(-c5ccc(NC(=O)c6cccnc6)cc5)sc4c3)sc2c1S(=O)(=O)O | 28.3 µM | – | – | – |
| Cc1ccc2nc(-c3ccc4nc(-c5ccc(NC(=O)c6ccc7nc(-c8ccc(NC(=O)OCC9c%10ccccc%10-c%10ccccc%109)cc8)sc7c6)cc5)sc4c3)sc2c1S(=O)(=O)O | 1.7 µM and 0.8 µM | 4 µM and 28.9 µM | – | – |
| Cc1ccc2nc(-c3ccc4nc(-c5ccc(NCc6ccccc6)cc5)sc4c3)sc2c1S(=O)(=O)O | 13.5 µM | 11 µM | – | – |
| Cc1ccc(NC(=O)Nc2ccc(-c3nc4ccc(-c5nc6ccc(C)c(S(=O)(=O)O)c6s5)cc4s3)cc2)cc1 | 4 µM | 5.3 µM | – | – |
| Cc1ccc2nc(-c3ccc4nc(-c5ccc(NC(=O)c6cc(C(F)(F)F)cc(C(F)(F)F)c6)cc5)sc4c3)sc2c1S(=O)(=O)O | 28.7 µM | – | – | – |
| Cc1ccc2nc(-c3ccc(N)cc3)sc2c1S(=O)(=O)O | 21.1 µM | inactive | – | – |
| Cc1ccc2nc(-c3ccc4nc(-c5ccc(N(C)C(=O)c6ccc7ccccc7c6)cc5)sc4c3)sc2c1S(=O)(=O)O | 13.5 µM | 14.4 µM | – | – |
| Cc1ccc2nc(-c3ccc4nc(-c5ccc(NS(=O)(=O)c6ccc(C(F)(F)F)cc6)cc5)sc4c3)sc2c1S(=O)(=O)O | 35 µM | 32 µM | – | – |

| Structure (SMILES) | IC50 [1] | IC50 [2] | outcome [1] | outcome [2] |
| --- | --- | --- | --- | --- |
| COc1cccc2c(=O)c3cc(Cl)cc(C(=O)Nc4cc(Cl)ccn4)c3[nH]c12 | 25.3 µM | 27.5 µM | – | – |
| Cc1ccc2nc(-c3ccc4nc(-c5ccc(NC(=O)c6ccc(C(F)(F)F)c(F)c6)cc5)sc4c3)sc2c1S(=O)(=O)O | 13 µM | 17.4 µM | – | – |
| O=C(Nc1nc2ccc(Br)cc2s1)c1ccc2ncsc2c1 | – | – | inactive | inactive |
| COc1ccc(S(=O)(=O)Nc2ccc(-c3nc4ccc(-c5nc6ccc(C)c(S(=O)(=O)O)c6s5)cc4s3)cc2)cc1 | 13.4 µM | 24.4 µM | – | – |
| Cc1ccc2nc(-c3ccc4nc(-c5ccc(NC(=O)c6cc(F)cc(C(F)(F)F)c6)cc5)sc4c3)sc2c1S(=O)(=O)O | 15.8 µM | 28.4 µM | – | – |
| Cc1ccc2nc(-c3ccc4nc(NC(=O)c5ccc6ncoc6c5)sc4c3)sc2c1 | inactive | inactive | – | – |
| Cc1ccc2nc(-c3ccc4nc(-c5ccc6nc(-c7ccc8nc(-c9ccc(N)cc9)sc8c7)sc6c5)sc4c3)sc2c1S(=O)(=O)O | 0.5 µM and 1.2 µM | 0.8 µM and 2.2 µM | – | – |
| Cc1ccc2nc(-c3ccc4nc(-c5ccc(NC(=O)c6ccc(F)cc6)cc5)sc4c3)sc2c1S(=O)(=O)O | 3 µM | 5.2 µM | – | – |
| CCN(CC)c1ccc(-c2nc3ccc(-c4nc5ccc(C)c(S(=O)(=O)O)c5s4)cc3s2)cc1 | 4.7 µM | 4.6 µM | – | – |
| Cc1ccc2nc(-c3ccc4nc(-c5ccc(NC(=O)c6ccccc6C(F)(F)F)cc5)sc4c3)sc2c1S(=O)(=O)O | 24.3 µM | 14.1 µM | – | – |
| Cc1ccc2nc(-c3ccc4nc(-c5ccc(NC(=O)c6ccc(N)cc6)cc5)sc4c3)sc2c1S(=O)(=O)O | 5.3 µM | 10.3 µM | – | – |
| O=C(CCCCCCC(=O)Nc1ccc(-c2nc3ccccc3[nH]2)cc1)Nc1ccc(-c2nc3ccccc3[nH]2)cc1 | 4.7 µM | 7.5 µM | – | – |
| Cc1ccc2nc(-c3ccc4nc(-c5ccc(NC(=O)c6ccc(N(C)C)cc6)cc5)sc4c3)sc2c1S(=O)(=O)O | 6 µM | 11 µM | – | – |
| CS(=O)(=O)c1ccc2nc(NC(=O)c3ccc4ncsc4c3)sc2c1 | 21.3 µM | 26.8 µM | – | – |
| Cc1ccc2nc(-c3ccc4nc(-c5ccc(NC(=O)c6ccc(CNC(=O)OCC7c8ccccc8-c8ccccc87)cc6)cc5)sc4c3)sc2c1S(=O)(=O)O | 4.6 µM | 4.4 µM | – | – |
| Cc1cc2sc(-c3ccc4nc(-c5ccc(N)cc5)sc4c3)nc2cc1S(=O)(=O)O | 3.9 µM | 7 µM | – | – |
| Cc1ccc2nc(-c3ccc4nc(-c5ccc(NC(=O)c6ccc(NC(=O)OCC7c8ccccc8-c8ccccc87)cc6)cc5)sc4c3)sc2c1S(=O)(=O)O | 5.8 µM | 5.4 µM | – | – |
| Cc1ccc2nc(-c3ccc4nc(-c5ccc(NC(=O)c6cc(C(F)(F)F)ccc6F)cc5)sc4c3)sc2c1S(=O)(=O)O | 6.7 µM | 6.4 µM | – | – |
| CCN(CC)c1ccc(-c2nc3ccc(C)c(S(=O)(=O)O)c3s2)cc1 | 24.6 µM | 32.9 µM | – | – |
| Cc1ccc2nc(-c3ccc(NC(=O)c4ccc(NC(=O)c5ccccc5)cc4)cc3)sc2c1S(=O)(=O)O | inactive | inactive | – | – |
| Cc1ccc2nc(-c3ccc4nc(-c5ccc(NC(=O)Nc6ccc(C(F)(F)F)cc6)cc5)sc4c3)sc2c1S(=O)(=O)O | 4 µM | 5.1 µM | – | – |
